{"source": "patent US20050048579A1", "about": "“Tertiary structures of ICAM-1/LFA-1 modulators” (priority 2003, published 2005)", "key": {"[1]": {"biological_target": "ICAM-1/LFA-1 dependent cell aggregation (Homo sapiens, UniProt P05362)", "sequence (P05362 28-532)": "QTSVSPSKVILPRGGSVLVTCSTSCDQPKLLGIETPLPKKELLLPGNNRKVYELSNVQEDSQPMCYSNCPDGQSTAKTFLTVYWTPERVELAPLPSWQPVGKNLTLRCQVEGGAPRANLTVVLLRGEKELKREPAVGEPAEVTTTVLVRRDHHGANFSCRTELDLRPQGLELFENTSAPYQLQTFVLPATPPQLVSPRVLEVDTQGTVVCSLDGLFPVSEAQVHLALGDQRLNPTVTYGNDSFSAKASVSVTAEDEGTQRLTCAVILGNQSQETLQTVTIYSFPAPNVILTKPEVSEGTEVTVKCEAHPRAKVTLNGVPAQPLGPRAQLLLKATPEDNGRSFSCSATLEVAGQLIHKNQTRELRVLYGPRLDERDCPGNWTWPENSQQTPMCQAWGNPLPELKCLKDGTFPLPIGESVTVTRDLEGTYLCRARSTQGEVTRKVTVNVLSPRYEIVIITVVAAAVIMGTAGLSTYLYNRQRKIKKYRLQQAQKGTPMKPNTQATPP", "conditions": "literature reports; cited from earlier work"}, "[2]": {"assay": "Solubility of the peptide", "format": "physicochemical", "conditions": "NS, not soluble; precluded testing; listed as R4 to A mutation", "description": "(§1) Cysteine-constrained peptides, synthesized by Biopeptide (San Diego, Calif., USA), were isolated using high-performance liquid chromatography, and their correct mass was confirmed by mass spectrometry. The peptides were dissolved in 5% dimethylsulfoxide in phosphate-buffered saline (PBS) at concentrations of 10 mm and stored at −80° C. until use. The mAb directed against LFA-1 (TS1/18) was purified from a hybridoma line ([…], Manassas, Va.) as described previously (Oj, V. T. & Herzenberg, T. (1980) Immunoglobulin-producing hybrid celllines. In Selected Methods in Cellular Immunology (Mishell, B. B. & Shiigi, S. M.,eds), H. H. Freeman, New York; Larson, R. S., Brown, D. C. & Sklar, L. A.(1997) Retinoic acid induces aggregation of the acute promyelocytic leukemia cell lineNB-4 by utilization of LFA-1 and ICAM-2.Blood 90, 2747-2756; Rothlein, R. & Springer, T. A. (1986) The requirement for lymphocyte function associated antigen 1 in homotypic leukocyte adhesion stimulated by phorbol ester. J. Exp.Med. 163, 1132-1149)."}, "[3]": {"biological_target": "T1, LFA-1 binding to ICAM-1 (JY cells) (Homo sapiens, UniProt P05362)", "T1 construct": "endogenous in cells; host or cells: JY cells", "T1 sequence (P05362 28-532)": "as above", "assay": "LFA-1:ICAM-1 dependent JY cell aggregation assay (2 hours)", "format": "cell-based", "description": "as §1\n(§2) JY cells were maintained in RPMI-1640 medium supplemented with 10% fetal bovine serum at 37° C. in an atmosphere containing 5% CO2 in air. The aggregation of JY cells, which is dependent on LFA-1 binding to ICAM-1, was determined as previously reported (Shannon, J. P., Silva, M. V., Brown, D. C. & Larson, R. S. (2001) Novel cyclic peptide inhibits intercellular adhesion molecule-1-mediated cell aggregation. J. Pept. Res. 58, 140-150; Larson, R. S., Brown, D. C. & Sklar, L. A.(1997) Retinoic acid induces aggregation of the acute promyelocytic leukemia cell lineNB-4 by utilization of LFA-1 and ICAM-2.Blood 90, 2747-2756; Rothlein, R. & Springer, T. A. (1986) The requirement for lymphocyte function associated antigen 1 in homotypic leukocyte adhesion stimulated by phorbol ester. J. Exp.Med. 163, 1132-1149). Briefly, JY cells were washed twice with serum-free media and resuspended at a concentration of 4×10^5 cells/mL. Cells were then preincubated with various concentrations of peptides or mAb for 15 minutes at room temperature. A 50 μL aliquot of cells was seeded in each well of a 96-well flat-bottomed microtiterplate followed by the addition of either peptide or mAb to a final volume of 100 μL. Cells were allowed to aggregate at 37° C. in humidified air containing 5% CO2. Within each well, the number of aggregates and the total number of free (single) cells were counted by inverted phase microscopy. Percent aggregation, P, was then determined as follows: P=100(1−Ff/Fi), where Ff (Fi) is the final (initial) number of free cells. Percent aggregation was then used to calculate percent inhibition, I, as follows: […], where Pi (Pc) is the percent aggregation with modulatory peptide (control). The constants for 50% inhibition (IC50) were derived from a linear fit to the percent inhibition at four concentrations (50 μm, 100 μm, 500 μm, and 1 mm) of inhibitory peptide. Each experiment was performed at least three times, with each condition performed in duplicate. The data are reported as the mean values and the SDs of each IC50."}, "[4]": {"biological_target": "T1, LFA-1 binding to ICAM-1 (JY cells)", "assay": "LFA-1:ICAM-1 dependent cell aggregation assay, slightly modified (360 minute incubations)", "format": "cell-based", "description": "as §2\nThe same general procedure was used as described in Example 1.\nThe functional activity of each IP02 derivative was measured in a slightly-modified version of the previously described cell aggregation assay (Shannon, J. P., Silva, M. V., Brown, D. C., & Larson, R. S. (2001). Novel cyclic peptide inhibits intercellular adhesion molecule-1-mediated cell aggregation. J. Pept. Res. 58, 140-150; Merchant, S. H., Gurule, D. M., Larson, R. S. (2003). Amelioration of ischemia-reperfusion injury with cyclic peptide blockade of ICAM-1. Am. J. Physiol. Heart Circ. 284,H1260-1268; Larson, R. S., Brown, D. C., and Sklar, L. A. (1997). Retinoic acid induces aggregation of the acute promyelocytic leukemia cell line NB-4 by utilization of LFA-1 and ICAM-2. Blood 90, 2747-2756; Rothlein, R. and Springer, T. A. (1986). The requirement for lymphocyte function-associated antigen 1 in homotypic leukocyte adhesion stimulated by phorbol ester. J. Exp. Med. 163, 1132-1149). Longer incubations (360 minutes) were used here instead of the earlier 120 minute incubations in order to increase the observed differences among peptide antagonists. Of all the amino acid substitutions, replacement of R6 with K, to produce IP02-K6, improved the IC50 the most. […] Alternatively, replacement of L2 or L3 with V (IP02-V2 and IP02-V3) or A8 with L (IP02-L8) abrogated activity, with IC50s exceeding 1,000 μM."}, "[5]": {"tested_on": "ischemia-reperfusion injury", "conditions": "in vivo; cited from earlier work"}}, "note": "Bridge positions count the residues as written; N and C are the ends. Peptide text beside a SMILES is read from it."}
{"compound": "CC[C@H](C)[C@@H]1NC(=O)[C@H](CO)NC(=O)[C@H](CCCNC(=N)N)NC(=O)[C@H](CCSC)NC(=O)[C@H](CCCNC(=N)N)NC(=O)[C@H](CC(C)C)NC(=O)[C@H](CC(C)C)NC(=O)[C@@H](N)CSSC[C@@H](C(=O)O)NC1=O", "note": "[IP01, CLLRMRSIC] (H-CLLRMRSIC-OH; disulfide 1-9; N-terminus and C-terminus assumed)", "values": [{"measurement": "inhibition of ICAM-1/LFA-1 dependent cell aggregation (in words)", "setting": "[1]", "value": "potent in vitro inhibitor"}]}
{"compound": "CC[C@H](C)[C@@H]1NC(=O)[C@H](CO)NC(=O)[C@H](CCCNC(=N)N)NC(=O)[C@H](CCSC)NC(=O)[C@H](C)NC(=O)[C@H](CC(C)C)NC(=O)[C@H](CC(C)C)NC(=O)[C@@H](N)CSSC[C@@H](C(=O)O)NC1=O", "note": "[IP01-A4, CLLAMRSIC] (H-CLLAMRSIC-OH; disulfide 1-9; N-terminus and C-terminus assumed)", "values": [{"measurement": "solubility of the peptide", "setting": "[2]", "value": "insoluble"}]}
{"compound": "CC[C@H](C)[C@@H]1NC(=O)[C@H](CO)NC(=O)[C@H](CCCNC(=N)N)NC(=O)[C@H](C)NC(=O)[C@H](CCCNC(=N)N)NC(=O)[C@H](CC(C)C)NC(=O)[C@H](CC(C)C)NC(=O)[C@@H](N)CSSC[C@@H](C(=O)O)NC1=O", "note": "[IP01-A5, CLLRARSIC] (H-CLLRARSIC-OH; disulfide 1-9; N-terminus and C-terminus assumed)", "values": [{"measurement": "IC50", "setting": "[3]", "value": "> 1", "unit": "mM"}]}
{"compound": "CC[C@H](C)[C@@H]1NC(=O)[C@H](CO)NC(=O)[C@H](C)NC(=O)[C@H](CCSC)NC(=O)[C@H](CCCNC(=N)N)NC(=O)[C@H](CC(C)C)NC(=O)[C@H](CC(C)C)NC(=O)[C@@H](N)CSSC[C@@H](C(=O)O)NC1=O", "note": "[IP01-A6, CLLRMASIC] (H-CLLRMASIC-OH; disulfide 1-9; N-terminus and C-terminus assumed)", "values": [{"measurement": "IC50", "setting": "[3]", "value": "> 1", "unit": "mM"}]}
{"compound": "CC[C@H](C)[C@@H]1NC(=O)[C@H](C)NC(=O)[C@H](CCCNC(=N)N)NC(=O)[C@H](CCSC)NC(=O)[C@H](CCCNC(=N)N)NC(=O)[C@H](CC(C)C)NC(=O)[C@H](CC(C)C)NC(=O)[C@@H](N)CSSC[C@@H](C(=O)O)NC1=O", "note": "[IP01-A7, CLLRMRAIC] (H-CLLRMRAIC-OH; disulfide 1-9; N-terminus and C-terminus assumed)", "values": [{"measurement": "bioactivity after alanine substitution (in words)", "setting": "[3]; listed as S7 to alanine substitution", "value": "retained significant bioactivity"}]}
{"compound": "CSCC[C@@H]1NC(=O)[C@H](CCCNC(=N)N)NC(=O)[C@H](CC(C)C)NC(=O)[C@H](CC(C)C)NC(=O)[C@@H](N)CSSC[C@@H](C(=O)O)NC(=O)[C@H](C)NC(=O)[C@H](CO)NC(=O)[C@H](CCCNC(=N)N)NC1=O", "note": "[IP01-A8, CLLRMRSAC] (H-CLLRMRSAC-OH; disulfide 1-9; N-terminus and C-terminus assumed)", "values": [{"measurement": "inhibition of ICAM-1/LFA-1 dependent cell aggregation (in words)", "setting": "[1]", "value": "enhanced inhibition"}, {"measurement": "bioactivity after alanine substitution (in words)", "setting": "[3]; listed as I8 to alanine substitution", "value": "retained significant bioactivity"}]}
{"compound": "CSCC[C@@H]1NC(=O)[C@H](CCCNC(=N)N)NC(=O)[C@H](CC(C)C)NC(=O)[C@H](CC(C)C)NC(=O)[C@@H](N)CSSC[C@@H](C(=O)O)NC(=O)[C@H](C)NC(=O)[C@H](CO)NC(=O)[C@H](CCCCN)NC1=O", "note": "[IP02-K6, CLLRMKSAC] (H-CLLRMKSAC-OH; disulfide 1-9; N-terminus and C-terminus assumed)", "values": [{"measurement": "IC50 fold smaller than lead peptide IP01", "setting": "[4]", "value": "~6", "unit": "fold"}, {"measurement": "inhibition of ICAM-1/LFA-1 dependent cell aggregation (in words)", "setting": "[1]", "value": "more potent inhibitor of ICAM-1 than IP01"}, {"measurement": "inhibition of ischemia-reperfusion injury (in words)", "setting": "[5]", "value": "potent in vivo inhibitor"}]}
